The test system of the assay is H1N1pdm09 virus (A/Netherlands/602/2009) I375F mutant. As to conditions: 1 h.

The term IC50 denotes the point on the concentration scale where inhibition reaches its midpoint. A high value points to weaker potency in that assay. Consider `CC[C@H](C)[C@@H]1NC(=O)[C@H](CS)NC(=O)[C@H](CO)NC(=O)[C@H](CCCNC(=N)N)NC(=O)[C@H](CCCNC(=N)N)NC(=O)[C@H](Cc2ccc(O)cc2)NC(=O)[C@H](CCC(N)=O)NC(=O)[C@H](Cc2ccccc2)NC(=O)[C@H](CC(N)=O)NC(=O)[C@H](CC(C)C)NC(=O)[C@@H]2CSC(=N2)c2cc(ccn2)C[C@@H](C(=O)NCC(N)=O)NC(=O)[C@H](CC(N)=O)NC(=O)[C@H](CC(C)C)NC(=O)[C@H]([C@@H](C)CC)NC(=O)[C@H](CC(N)=O)NC(=O)[C@H](CC(C)C)NC1=O` [M3], for which the half-maximal inhibitory concentration (IC50) stood at 364 nM.

The values above are taken from publication PMC10548512 (Chemical Science, 2023).
